The target in data set [1] is GST-TSC2 fragment 1 (amino acids 910-1112) (UniProt P49816).
For data set [2], the target named is GST-TSC2 fragment 2 (amino acids 1357-1765) (UniProt P49816).
In data set [3] the target is TSC2 fragment containing S1345 (UniProt P49816).
For a further data set, the target named is TSC2-F2 fragment (UniProt P49816).
Data set [4] deals with phosphorylation of S6K, S6, 4EBP1 and mTOR. Put plainly: Immunoblot of S6K, S6, 4EBP1 and mTOR phosphorylation in HEK293 cells under energy depletion. As to conditions: for phosphorylation of S6K and 4EBP1: depletion of cellular ATP. In kind it is cell-based, human. The method, then:
(§1) HEK293 cells were seeded and maintained in Dulbecco's modified Eagle's medium (DMEM) containing 10% fetal bovine serum (FBS). Transfection was performed in serum-free conditions using Lipofectamine reagent (Invitrogen, Carlsbad, Calif.) in accordance with the manufacturer's instructions. In brief, 4 h after transfection, the cells were recovered in DMEM containing 10% FBS for 16 h and then starved for 16-24 h. Cells were then lysed in lysis buffer (10 mM Tris-HCl at pH 7.5, 100 mM sodium chloride, 1% NP-40, 1% Triton X-100, 50 mM sodium fluoride, 2 mM EDTA, 1 mM phenyl methylsulphonyl fluoride, 10 μg ml^−1 leupeptin and 10 μg ml^−1 aprotinine) and immunoprecipitated with the indicated antibodies and protein G-Sepharose beads. Immunocomplexes were analyzed by SDS-polyacrylamide gel electrophoresis (PAGE).
On the technique in general: Immunoblotting shows a protein as a band on a membrane.

The subject of another data set is EEF4 (TSC2+/+) cells. The data set can be described thus: S6K and 4EBP1 phosphorylation in EEF4 (TSC2+/+) fibroblasts. In kind it is cell-based.
The next data set has as its system AMPK. As to conditions: Corton et al.; cited from earlier work.
The test system of data set [5] is eukaryotic elongation factor 2 (eEF2). As to conditions: Horman et al.; cited from earlier work.
A further data set relates to S6K and 4EBP1. As to conditions: Kimura et al.; Krause et al.; cited from earlier work.
The test system of a further data set is S6K-dC104. Put plainly: Phosphorylation and kinase activity of rapamycin-resistant S6K mutants (S6K-dC104, S6K-dNC). In kind it is cell-based. The method, then: as §1
For the S6K assays, HEK293 cells grown in six-well plates were transfected with 10-20 ng HA-S6K constructs, with or without various plasmids, as indicated in the figures. HA-S6K was immunoprecipitated from serum-starved cells with an anti-HA antibody and analyzed by in vitro kinase assay using purified GST-S6 as a substrate (Pearson et al., EMBO J. 14:5279-5287 (1995)).

Data set [6] deals with db/db mice. The class given is in vivo. As to conditions: 16 weeks treatment. The method, then:
m+/+ Lepr db (db/+) mice were obtained from The Charles River Japan and mated, +Lepr db/+ Lepr db mice (db/db) mice were generated.
Mice were randomly divided into four groups as follows: nondiabetic db/+; nondiabetic db/+ treated with Rapamycin; diabetic db/db: and diabetic db/db treated with Rapamycin (2.0 mg/kg body weight, 3 days/week). Rapamycin was injected intraperitoneally (i.p.) from the age of 8 weeks to 25 weeks or 16 weeks to 25 weeks. Blood glucose levels and body weight were determined weekly in all animals. Mice were housed in a 12 hr light/dark cycle and temperature-controlled environment. […]
At age 25 weeks, kidney was isolated from db/db and db/+ mice (n=10 for each group), and total RNA was purified. The expression of fibronectin and α3-type IV collagen mRNA by real-time reverse transcriptase-polymerase chain reaction (RT-PCR), which was performed in an ABI 7700 sequence detector (Applied Biosystems), was quantified. […] For quantitative RT-PCR of UCP-1, BAT (brown adipose tissue) was isolated from 2 weeks rapamycin treated or untreated mice, primers used were described previously (see, e.g., Um S H, et al., Nature 431, 200-205, 2004; herein incorporated by reference in its entirety). Data were normalized to GAPDH and analyzed by the comparative threshold cycle method. […]
Data were expressed as the means±SEM. […]

Data set [7] has as its system db/db mice. The data set can be described thus: Diabetic nephropathy in db/db mice: glomerular morphometry, gene expression, urinary albumin. In kind it is in vivo. As to conditions: rapamycin for 8 weeks from 16 weeks of age. As for the experimental part:
Mice were randomly divided into four groups as follows: nondiabetic db/+; nondiabetic db/+ treated with Rapamycin; diabetic db/db: and diabetic db/db treated with Rapamycin (2.0 mg/kg body weight, 3 days/week). Rapamycin was injected intraperitoneally (i.p.) from the age of 8 weeks to 25 weeks or 16 weeks to 25 weeks. Blood glucose levels and body weight were determined weekly in all animals. Mice were housed in a 12 hr light/dark cycle and temperature-controlled environment. Animal care and all experiments were conducted in accordance with the institutional guidelines of the Kyushu University Graduate School of Medicine.
Seventeen weeks after treatment with rapamycin (25 week of age), mice were deeply anesthetized, after perfusion with ice-cold PBS, the kidneys were perfused with 4% paraformaldehyde. […] To quantify mesangial expansion, sections were coded and read. […] The extent of increase in mesangial matrix (defined as mesangial area) was determined by the presence of PAS-positive and nuclei-free area in the mesangium; the glomerular surface area has been measured using standard measurements of glomerular tuft areas using a the computer program of Axiovision Auto Mesure.
At age 25 weeks, kidney was isolated from db/db and db/+ mice (n=10 for each group), and total RNA was purified. […] Data were normalized to GAPDH and analyzed by the comparative threshold cycle method. […]

The next data set relates to TSC2. The data set can be described thus: TSC2/TSC1 phosphorylation in transfected HEK293 cells (mobility shift, 32P labelling, two-dimensional phosphopeptide mapping). As to conditions: 10 μM, added 30 minutes before 2-DG, HEK293. In kind it is cell-based, human. As for the experimental part:
as §1
HEK293 cells were cotransfected with HA-tagged TSC2, Myc-tagged TSC1 and the indicated plasmids. Cells were phosphate- and serum-starved for 4 h before incubation with 0.25 mCi ml^−1 32P-orthophosphate (ICN) for 4 h.
Cells were washed once with ice-cold PBS and lysed. HA-tagged TSC2 was immunoprecipitated, resolved by SDS-PAGE and transferred to a PVDF membrane. Phosphorylated TSC2 was visualized by autoradiography and phosphopeptide mapping was then performed. In brief, the phosphorylated TSC2 bands were excised, fixed in methanol and incubated in 500 μl of 0.5% polyvinylpyrrolidone-40 dissolved in 100 mM acetic acid for 30 min at 37° C. The sample were then digested with 20 μg of TPCK-treated trypsin (Sigma) at 37° C. in 75 mM ammonium bicarbonate buffer at pH 8.0 containing 5% acetonitrile. After digestion, samples were dried under vacuum and suspended in 10 μl of water. Samples were spotted onto a cellulose plate and first dimensional electrophoresis was performed using 1% ammonium bicarbonate buffer at pH 8.9. The plates were separated by chromatography in the second dimension in chromatography buffer (n-butanol:pyridine:acetic acid:water; 20:24:6:30). The plates were dried and phosphopeptides were visualized by autoradiography.

A further data set has as its system Akt phosphorylation. The data set can be described thus: Immunoblot of Akt phosphorylation in HEK293 cells. As to conditions: AMPK inhibitor treatment. In kind it is cell-based, human. The method, then: as §1
In data set [8] the test system is LEF (TSC2−/− epithelial) cells. Put plainly: Cell death / apoptosis of LEF cells (vector, TSC2, TSC2-3A). In kind it is cell-based. As to conditions: vector and wild type TSC2 expressing LEF cells. As for the experimental part:
FIGS. 16a-16f show TSC2 plays roles in protecting cells from glucose depletion-induced apoptosis. […] LEF cells stably expressing vector, TSC2, or TSC2-3A were cultured in 25 mM glucose (G+) or glucose free medium (G−) with or without 20 nM rapamycin. Pictures were taken at 72 hours in culture. Note that the TSC2 wild type expressing cells are morphologically smaller. […] LEF cells stably expressing vector, TSC2 or TSC2-3A were cultured in glucose free medium with or without 20 nM rapamycin for 48 hours. Western blots with anti-cleaved-caspase-3 and actin are shown. […] EEF cells were cultured in glucose free medium with or without 20 nM rapamycin for 96 hours. […] The EEF4 and EEF8 cells were cultured in glucose free medium with or without 20 nM rapamycin for 72 hours. Western blots with cleaved-caspase-3 and actin are shown. […] The MEFs were cultured in glucose free medium for 48 hours. […] MEFs were cultured in glucose free medium with or without 20 nM rapamycin for 16 hours. Western blots with cleaved-caspase-3 and actin are shown.

Results on nine compounds are retold here after US20080207671A1, “Diagnosis and treatment of diseases arising from defects in the tuberous sclerosis pathway” (The Regents of the University of Michigan, priority 2006, published 2008).

Entries after “also recorded” stand apart in the source; their conditions may differ.

Regarding GST-Akt, the “in vitro phosphorylation by purified Akt” value in data set [1] was “Wild-type Akt, but not the kinase-inactive Akt-KM mutant, efficiently phosphorylated both fragment 1 and fragment 2 of TSC2 in vitro”; in data set [2], “Wild-type Akt, but not the kinase-inactive Akt-KM mutant, efficiently phosphorylated both fragment 1 and fragment 2 of TSC2 in vitro”.
In the case of “immunoprecipitated AMPK (in vitro kinase assay)”, the “in vitro phosphorylation by immunoprecipitated AMPK” value in data set [3] was “The TSC2 fragment was phosphorylated by immunoprecipitated AMPK, but not the kinase inactive AMPK mutant”; with TSC2-F2 fragment it was “In vitro phosphorylation of the purified TSC2-F2 fragment by immunoprecipitated AMPK showed that AMPK specifically phosphorylates TSC2 on T1227”.
On to `CC(=O)c1c(O)c(C)c(O)c(Cc2c(O)c3c(c(C(=O)/C=C/c4ccccc4)c2O)OC(C)(C)C=C3)c1O` [Rottlerin], for which, in [4], the “phosphorylation of S6K and 4EBP1” value is “caused a dephosphorylation of S6K and 4EBP1”. Further, the S6K phosphorylation result with EEF4 (TSC2+/+) cells is “caused a decrease in S6K phosphorylation”.
As to `NC(=O)c1ncn([C@@H]2O[C@H](COP(=O)(O)O)[C@@H](O)[C@H]2O)c1N` [AICAR, 5-aminoimidazole-4-carboxyamide ribonucleotide], the AMPK activation entry in the data set on AMPK was “activate AMPK”. Besides, in data set [5], the “phosphorylation of eEF2” value is “increase phosphorylation”. Further, the S6K activity result with S6K and 4EBP1 is given as “inhibit S6K activity”.
On to `N#CC(C#N)=NNc1ccc(OC(F)(F)F)cc1` [FCCP], for which the “phosphorylation of S6K and 4EBP1” value in data set [4] is “caused a dephosphorylation of S6K and 4EBP1”. Also, the S6K phosphorylation result with EEF4 (TSC2+/+) cells is “caused a decrease in S6K phosphorylation”.
As to `CO[C@H]1C[C@@H]2CC[C@@H](C)[C@@](O)(O2)C(=O)C(=O)N2CCCC[C@H]2C(=O)O[C@H]([C@H](C)C[C@@H]2CC[C@@H](O)[C@H](OC)C2)CC(=O)[C@H](C)/C=C(\C)[C@@H](O)[C@@H](OC)C(=O)[C@H](C)C[C@H](C)/C=C/C=C/C=C/1C` [rapamycin], the “phosphorylation of Thr 389 in S6K-dC104” value in the data set with S6K-dC104 is “not inhibited”. Further, the “increase in oxygen consumption versus db/db untreated mice” value in the data set on db/db mice [6] was 3.27 folds. The “amount of albumin excreted relative to the starting point (16w; db/db)” value with db/db mice [7] is reported as 60%.
Take `OC[C@@H](O)[C@@H](O)[C@H](O)[C@H](O)CO` [mannitol]: the “phosphorylation of S6K on T389” value in data set [4] (25 mM) was “had little effect”. Further, the “phosphorylation of S6K” value in data set [4] (100 mM) is listed as “significantly inhibited”.
As to `c1cc(-c2cnn3cc(-c4ccc(OCCN5CCCCC5)cc4)cnc23)ccn1` [Compound C], the “mobility of TSC2 / 2-DG induced mobility shift” value in the data set with TSC2 is recorded as “blocks the 2-DG induced mobility shift of TSC2”; in the data set with TSC2 (listed as compound C), “increased the mobility of TSC2”. The “effect on 2-DG induced dephosphorylation of S6K” value in [4] (HEK 293, with 2-DG, listed as AMPK inhibitor) is on record as “significantly reversed the inhibitory effect of 2-DG on S6K phosphorylation; also recorded: blocks the 2-DG induced dephosphorylation of S6K”. Besides, the “S6K dephosphorylation induced by glucose deprivation” value in [4] (glucose deprivation, listed as AMPK inhibitor) is recorded as “significantly blocked; also recorded: partially blocks”. In addition, the Akt phosphorylation entry in the data set with Akt phosphorylation is given as “had no effect”.
Turning to `COc1cc([C@@H]2c3cc4c(cc3[C@@H](O[C@@H]3O[C@@H]5CO[C@@H](C)O[C@H]5[C@H](O)[C@H]3O)[C@H]3COC(=O)[C@H]23)OCO4)cc(OC)c1O` [Etoposide], the cell death result in [8] is “caused cell death in both vector and wild type TSC2 expressing cells”.
